# In PubChem BioAssay (NCI):
#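 Assay format: 96-well plates, 48-hour exposure. Definition used: TGI = concentration required for complete inhibition of growth.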
# Tests used:
# Test in all cases: NCI tumour cell line growth inhibition, 48 h
# [1] = tested on: UACC-257 melanoma
# [2] = tested on: HL-60(TB) leukemia
# [3] = tested on: SNB-19 CNS
# [4] = tested on: NCI-H522 lung
# [5] = tested on: MALME-3M melanoma
# [6] = tested on: ACHN renal
# [7] = tested on: TK-10 renal
# [8] = tested on: NCI-H226 lung
# [9] = tested on: RXF 393 renal
# [10] = tested on: MDA-N
SMILES,TGI [1] [µM],TGI [2] [µM],TGI [3] [µM],TGI [4] [µM],TGI [5] [µM],TGI [6] [µM],TGI [7] [µM],TGI [8] [µM],TGI [9] [µM],TGI [10] [µM]
CN(C)Cc1c(O)ccc2c1c1c(n2C)C(=O)c2ccccc2C1=O,23.9,> 100,> 100,20.8,15.5,> 100,50.7,38.1,81.5,
COc1cc(C2S/C(=C/c3ccccc3)C(=O)N2Cc2ccccc2)cc(OC)c1OC (stereo not drawn),> 100,> 100,> 100,62.8,,> 100,> 100,> 100,,52.6
COC(=O)[C@H](CC(C)C)NC(=O)[C@H](Cc1ccccc1)N1CC2C=CC1C2 (stereo partly drawn),> 100,> 100,> 100,> 100,> 100,> 100,> 100,> 100,> 100,
CCOC(=O)c1[nH]cc(C)c1-c1cccn1-c1ccc(Cl)cc1[N+](=O)[O-],67.8,,,34.9,,> 100,41.7,46.2,33.5,69.6
CC(C)OP(=S)(NC(=S)c1ccccc1)OC(C)C,> 100,,> 100,,> 100,> 100,> 100,> 100,,
COC1OCC(O)C(NC(=O)N(C)N=O)C1O (stereo not drawn),> 100,,> 100,> 100,> 100,,,> 100,> 100,
COc1cccc2c1OC1Sc3ccccc3-c3nn(-c4ccccc4)c-2c31 (stereo not drawn),> 100,> 100,,> 100,> 100,> 100,> 100,,> 100,
O=C(Cc1nc2ccc(C(=O)c3ccccc3)cc2[nH]c1=O)C(=O)Nc1nc2ccccc2[nH]1,> 100,> 100,> 100,> 100,> 100,> 100,> 100,,,
Cc1c(Cc2ccccc2)n(C(C)OCCN(OC(=O)Oc2ccccc2)C(=O)Oc2ccccc2)c(=O)[nH]c1=O (stereo not drawn),30.2,,> 100,29.3,,57.3,,,30.1,41.4
CNC(=O)N(CCC#N)CCN(C(=O)NC)c1ccccc1,> 100,,> 100,> 100,> 100,> 100,> 100,> 100,> 100,> 100
O=C1c2cc(I)ccc2N2CCN=C2N1Cc1ccccc1,> 100,> 100,> 100,> 100,> 100,> 100,> 100,> 100,49.4,
O=C1C=C(Nc2ccccc2C(=O)CC(=O)C(=O)Nc2ccc(Cl)cc2)c2ccccc2C1=O,21.7,> 100,43.9,26.1,24.1,55.1,> 100,> 56.6,45.9,
CC1=NN(C(=O)Cc2ccccc2)C(=O)/C1=C\c1ccc([N+](=O)[O-])cc1,> 100,,> 100,> 100,> 100,> 100,> 100,> 100,> 100,
Nn1c(Nc2ccc(S(N)(=O)=O)cc2)nnc(/C=C/c2c(O)ccc3ccccc23)c1=O,92.8,28.6,> 100,33,49.7,> 100,,,,42
CC#C[C@]1(O)CCC2[C@@H]3CCC4=CC(=O)CCC4=C3[C@@H](c3ccc(N(C)C)cc3)C[C@@]21C (stereo partly drawn),36.5,38,98.3,,42,> 100,43.1,,,49.3
CC(C)(C)N/N=C(\C(=O)Nc1cccc(Cl)c1)C1C(=O)Nc2ccccc2S1=O (stereo not drawn),> 100,> 100,> 100,> 100,47.4,> 100,> 100,> 100,> 100,
CC(=O)c1ccccc1NC(=O)C(=O)C(C(=O)c1ccc2ccccc2c1)C1OC(=O)c2ccccc21 (stereo not drawn),61.8,43.6,35.3,29.2,23.3,> 100,92.4,7.86,,
CCOC(=O)c1c(NS(=O)(=O)c2ccc(C)cc2)sc2c1CCCC2,> 100,> 100,> 100,,,> 100,> 100,> 100,,> 100
